According to patent publication US6218393A, “Anthranilic acid derivatives as multi drug resistance modulators” (priority 1997, dated 2001):

Tests used:
AR 1.0 cells [1] = assay: Drug accumulation assay: daunorubicin accumulation in AR 1.0 cells; assay type: cell-based; settings: Mus musculus, 100% = accumulation with verapamil 100 μM, 1 hr, 37° C.
Method in brief: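 Daunorubicin accumulation was measured in cells plated 48 h beforehand. These were AR 1.0 cells, an MDR-resistant derivative of mouse EMT6 mammary carcinoma, cultured at 37 °C in 5% CO2 in RPMI 1640 plus 10% foetal calf serum and 2 mM glutamine.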

AR 1.0 cells [2] = assay: Potentiation of doxorubicin toxicity: proliferation assay (sulphorhodamine B); assay type: cell-based, mouse
From the text: (a) Selected compounds of formula (I) were examined for their ability to potentiate the toxicity of doxorubicin in AR 1.0 cells.

AR 1.0 cells [3] = assay: Potentiation index with doxorubicin titration; assay type: cell-based, mouse; settings: for Potentiation Index at RMA concentration 300 nM: Table C2, RMA 300 nM; for Potentiation Index at RMA concentration 500 nM: Table C2, RMA 500 nM
Method in brief: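 Doxorubicin IC50 in AR 1.0 cells (MDR subline of EMT6 mouse mammary carcinoma) determined by sulphorhodamine B after 4-day culture across 0.263 nM-17.24 μM, with and without a fixed dose of test compound; their ratio gives the PI.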

[4] = Mus musculus, 96 h, compound alone, four day proliferation, read-out: Compound Toxicity (IC50)
[5] = with fixed doxorubicin 0.34 μm, four days, 5760 min, read-out: Toxicity with Cytotoxic Agent (IC50)

| SMILES | IC50 (AR 1.0 cells [1]) | IC50 (AR 1.0 cells [2]; [4]) | IC50 (AR 1.0 cells [2]; [5]) | Potentiation Index at RMA concentration 300 nM (AR 1.0 cells [3]) | Potentiation Index at RMA concentration 500 nM (AR 1.0 cells [3]) |
| --- | --- | --- | --- | --- | --- |
| COc1cc2c(cc1OC)CN(CCNC(=O)c1ccccc1NC(=O)c1ccc3ccccc3c1)CC2 [compound 9295, Naphthalene-2-carboxylic acid {2-[2-(6,7-dimethoxy-3,4-dihydro-1H-isoquinolin-2-yl)-ethylcarbamoyl]-phenyl}-amide] | 390 nM | 40000 nM | 600 nM | 16 | – |
| CCCc1ccc(C(=O)Nc2ccccc2C(=O)NCCN2CCc3cc(OC)c(OC)cc3C2)cc1 [compound 9297, 2-(4-Propyl-benzoylamino)-N-[2-(6,7-dimethoxy-3,4-dihydro-1H-isoquinolin-2-yl)-ethyl]-benzamide] | 400 nM | 18000 nM | 330 nM | 16 | – |
| COc1cc2c(cc1OC)CN(CCNC(=O)c1ccccc1NC(=O)c1ccc(C(C)C)cc1)CC2 [compound 9304, 2-(4-Isopropyl-benzoylamino)-N-[2-(6,7-dimethoxy-3,4-dihydro-1H-isoquinolin02-yl)-ethyl]-benzamide] | 1200 nM | 8000 nM | 150 nM | – | 30 |
| COc1cc2c(cc1OC)CN(CCNC(=O)c1ccccc1NC(=O)c1ccc(C3CCCCC3)cc1)CC2 [compound 9331, 2-(4-Cyclohexyl-benzoylamino)-N-[2-(6,7-dimethoxy-3,4-dihydro-1H-isoquinolin-2-yl)-ethyl]-benzamide] | 1300 nM | 7000 nM | 40 nM | 40 | 120 |
| COc1cc2c(cc1OC)CN(CCNC(=O)c1ccc(F)cc1NC(=O)c1ccc(C(C)C)cc1)CC2 [compound 9349, 2-(4-Isopropyl-benzoylamino)-N-[2-(6,7-dimethoxy-3,4-dihydro-1H-isoquinolin-2-yl)-ethyl]-4-fluoro-benzamide] | 300 nM | 5500 nM | 140 nM | – | 22 |
| COc1cc2c(cc1OC)CN(CCNC(=O)c1cc(Cl)ccc1NC(=O)c1ccc(C(C)C)cc1)CC2 [compound 9354, 2-(4-Isopropyl-benzoylamino)-N-[2-(6,7-dimethoxy-3,4-dihydro-1H-isoquinolin-2-yl)-ethyl]-5-chioro-benzamide] | 600 nM | 8000 nM | 150 nM | – | 20 |
| COc1cc2c(cc1OC)CN(CCNC(=O)c1cc(Br)ccc1NC(=O)c1ccc(C(C)C)cc1)CC2 [compound 9394, 2-(4-Isopropyl-benzoylamino)-N-[2-(6,7-dimethoxy-3,4-dihydro-1H-isoquinolin-2-yl)-ethyl]-5-bromo-benzamide] | 3400 nM | 10000 nM | – | – | 12 |
| CCCCCc1ccc(C(=O)Nc2ccccc2C(=O)NCCN2CCc3cc(OC)c(OC)cc3C2)cc1 [compound 9395, 2-(4-Pentyl-benzoylamino)-N-[2-(6,7-dimethoxy-3,4-dihydro-1H-isoquinolin-2-yl)-ethyl]-benzamide] | 1300 nM | 9000 nM | 150 nM | – | 21 |
| COc1cc2c(cc1OC)CN(CCNC(=O)c1c(Cl)cccc1NC(=O)c1ccc(C(C)C)cc1)CC2 [compound 9405, 2-(4-Isopropyl-benzoylamino)-N-[2-(6,7-dimethoxy-3,4-dihydro-1H-isoquinolin-2-yl)-ethyl]-6-chioro-benzamide] | 300 nM | 22000 nM | 90 nM | – | 8.6 |
| COc1cc2c(cc1OC)CN(CCNC(=O)c1ccc(N)cc1NC(=O)c1ccc(C(C)C)cc1)CC2 [compound 9435, 2-(4-Isopropyl-benzoylamino)-N-[2-(6,7-dimethoxy-3,4-dihydro-1H-isoquinolin-2-yl)-ethyl]-4-amino-benzamide] | 1900 nM | 9000 nM | 400 nM | – | – |
| COc1cc2c(cc1OC)CN(CCc1ccc(NC(=O)c3ccccc3NC(=O)c3ccccn3)cc1)CC2 [compound 9472, Pyridine-2-carboxylic acid (2-{4-[2-(6,7-dimethoxy-3,4-dihydro-1H-isoquinolin-2-yl)-ethyl]-phenylcarbamoyl}-phenyl)-amide] | 500 nM | 6500 nM | 120 nM | – | – |
| COc1cc2c(cc1OC)CN(CCc1ccc(NC(=O)c3ccccc3NC(=O)c3cccnc3)cc1)CC2 [compound 9482, N-(2-{4-[2-(6,7-Dimethoxy-3,4-dihydro-1H-isoquinolin-2-yl)-ethyl]-phenylcarbamoyl}-phenyl)-nicotinamide] | 540 nM | 12000 nM | 220 nM | – | – |
| COc1cc2c(cc1OC)CN(CCc1ccc(NC(=O)c3ccccc3NC(=O)c3ccsc3)cc1)CC2 [compound 9492, Thiophene-3-carboxylic acid (2-{4-[2-(6,7-dimethoxy-3,4-dihydro-1H-isoquinolin-2-yl)-ethyl]-phenylcarbamoyl}-phenyl)-amide] | 1000 nM | 3000 nM | 20 nM | – | – |
| COc1cc2c(cc1OC)CN(CCc1ccc(NC(=O)c3ccccc3NC(=O)c3ccccc3OC(C)=O)cc1)CC2 [compound 9534, Acetic acid 2-(2-{4-[2-(6,7-dimethoxy-3,4-dihydro-1H-isoquinolin-2-yl)-ethyl]-phenylcarbamoyl}-phenylcarbamoyl)-phenyl ester] | 140 nM | 6600 nM | 0.2 nM | – | – |
| COc1cc2c(cc1OC)CN(CCc1ccc(NC(=O)c3ccccc3NC(=O)c3cccc(OC(C)=O)c3)cc1)CC2 [compound 9540, Acetic acid 3-(2-{4-[2-(6,7-dimethoxy-3,4-dihydro-1H-isoquinolin-2-yl)-ethyl]-phenylcarbamoyl}-phenylcarbamoyl)-phenyl ester] | 1200 nM | 6200 nM | 1000 nM | – | – |
| COc1cc2c(cc1OC)CN(CCc1ccc(NC(=O)c3ccccc3NC(=O)c3ccc4ccccc4n3)cc1)CC2 [compound 9545, Quinoline-2-carboxylic acid (2-{4.-[2-(6,7-dimethoxy-3,4-dihydro-1H-isoquinolin-2-yl)-ethyl]-phenylcarbamoyl}-phenyl)-amide] | 800 nM | 1700 nM | – | – | – |
| COc1cc2c(cc1OC)CN(CCc1ccc(NC(=O)c3ccccc3NC(=O)c3ccc(OC(C)=O)cc3)cc1)CC2 [compound 9548, Acetic acid 4-(2-{4-[2-(6,7-dimethoxy-3,4-dihydro-1H-isoquinolin-2-yl)-ethyl]-phenylcarbamoyl}-phenylcarbamoyl)-phenyl ester] | 4900 nM | 1800 nM | 1000 nM | – | – |
| COc1cc2c(cc1OC)CN(CCc1ccc(NC(=O)c3ccccc3NC(=O)c3cccc(O)c3)cc1)CC2 [compound 9549, 2-(3-Hydroxy-benzoylamino)-N-{4-[2-(6,7-dimethoxy-3,4-dihydro-1H-isoquinolin-2-yl)-ethyl]-phenyl}-benzanlide] | 4300 nM | 5600 nM | 520 nM | – | – |
| CCC(=O)c1cnc(C(=O)Nc2ccccc2C(=O)Nc2ccc(CCN3CCc4cc(OC)c(OC)cc4C3)cc2)cn1 [compound 9569, 5-Propionyl-pyrazine-2-carboxylic acid (2-{4-[2-(6,7-dimethoxy-3,4-dihydro-1H-isoquinolin-2-yl)-ethyl]-phenylcarbamoyl}-phenyl)-amide] | 930 nM | 190 nM | 8 nM | – | – |
